Positions count from the first letter of the chain named.
Assays:
Format in all cases: biochemical
HDA14 (6xHis-HDA14) = target: T1, HDA14 (6xHis-HDA14) (Arabidopsis thaliana, UniProt Q941D6); experiment: colorimetric deacetylase assay, acetylated p53 peptide p53-5,2-ANB, trypsin-coupled, […] nm
T1 construct: lacks first 45 aa (predicted signal peptide); N-terminal 6xHis tag (pEXP-5-NT/TOPO); E. coli BL21(DE3); apoenzyme reloaded with Zn2+ or Co2+
T1 sequence (Q941D6 46-423): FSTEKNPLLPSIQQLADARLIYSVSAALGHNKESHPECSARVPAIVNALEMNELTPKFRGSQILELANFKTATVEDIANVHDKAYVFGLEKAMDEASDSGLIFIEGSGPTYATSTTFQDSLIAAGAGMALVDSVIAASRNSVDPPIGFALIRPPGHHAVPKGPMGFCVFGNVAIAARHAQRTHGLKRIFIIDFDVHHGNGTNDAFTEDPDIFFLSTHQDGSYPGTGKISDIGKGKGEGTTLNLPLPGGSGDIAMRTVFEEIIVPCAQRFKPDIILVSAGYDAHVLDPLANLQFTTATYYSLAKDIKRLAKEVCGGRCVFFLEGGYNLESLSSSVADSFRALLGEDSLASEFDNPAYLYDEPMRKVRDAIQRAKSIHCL

[1] = target: T2, RCA-β1 (RCAβ1; 6x-HisRCAβ1) (Arabidopsis thaliana, UniProt F4IVZ7, K438Q); experiment: ATPase activity, KinaseGlo Max luminescent ATP consumption assay; conditions: read-out: % inhibition at 55 uM ADP
T2 construct: N-terminal 6xHis tag, pCDFDuet-1, E. coli Rosetta-gami
T2 sequence (F4IVZ7 59-441 K438Q): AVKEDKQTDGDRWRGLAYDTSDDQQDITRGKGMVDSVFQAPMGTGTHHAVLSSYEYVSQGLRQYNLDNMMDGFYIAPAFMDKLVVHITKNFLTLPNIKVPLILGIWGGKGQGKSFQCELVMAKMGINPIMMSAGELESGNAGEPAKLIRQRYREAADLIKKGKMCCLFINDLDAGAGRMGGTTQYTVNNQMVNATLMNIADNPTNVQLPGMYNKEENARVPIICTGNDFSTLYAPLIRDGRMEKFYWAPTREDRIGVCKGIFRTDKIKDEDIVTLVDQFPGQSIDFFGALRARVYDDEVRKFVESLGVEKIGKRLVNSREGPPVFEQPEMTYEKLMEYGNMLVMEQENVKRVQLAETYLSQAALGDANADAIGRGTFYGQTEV

[2] = target: T3, RCA-β1 (RCAβ1; 6x-HisRCAβ1) (Arabidopsis thaliana, UniProt F4IVZ7, K438R); experiment: as above; conditions: read-out: % inhibition at 55 uM ADP
T3 construct: N-terminal 6xHis tag, pCDFDuet-1, E. coli Rosetta-gami
T3 sequence (F4IVZ7 59-441 K438R): T2 sequence (F4IVZ7 59-441 K438Q) with Q380R

[3] = target: T4, RCA-β1 (RCAβ1; 6x-HisRCAβ1) (Arabidopsis thaliana, UniProt F4IVZ7); experiment: as above; conditions: read-out: % inhibition at 55 uM ADP
T4 construct: N-terminal 6xHis tag, pCDFDuet-1, E. coli Rosetta-gami
T4 sequence (F4IVZ7 59-441): T2 sequence (F4IVZ7 59-441 K438Q) with Q380K

| inhibition at 5 µM (HDA14 (6xHis-HDA14)) | inhibition at 55 µM [1] | inhibition at 55 µM [2] | inhibition at 55 µM [3] | Structure (SMILES) |
| --- | --- | --- | --- | --- |
| 80% | – | – | – | CC(/C=C/C(=O)NO)=C\[C@@H](C)C(=O)c1ccc(N(C)C)cc1 [trichostatin A] |
| – | ~8% | ~30% | ~19% | Nc1ncnc2c1ncn2[C@@H]1O[C@H](COP(=O)(O)OP(=O)(O)O)[C@@H](O)[C@H]1O [ADP] |
